Results from patent publication US20210145833A1, “Methods and Compositions for Hair Growth by Activating Autophagy” (The Regents of the University of California, priority 2018, published 2021).
Entries after “also recorded” stand apart in the source; their conditions may differ.

Columns and labels:
[1] = test system: C57BL/6J mouse dorsal skin; experiment: Assay for hair regeneration in mice (topical treatment of shaved telogen dorsal skin); settings: for Rapid anagen entry on whole dorsal telogen skin: among treated mice
Procedure: Anagen in black mice is macroscopically recognizable by the melanin pigment visible through the skin, as the melanogenic activity of follicular melanocytes is strictly coupled to the anagen stage of the hair cycle.
All compounds were tested in both male and female mice. Every experiment was repeated independently at least 2 times. Some treatments with different agents were performed concurrently with shared control arms. C57BL/6J male mice were obtained at 6 or 8 weeks of age from Jackson Laboratories (Bar Harbor, ME). C57BL/6J female mice were obtained at 8 weeks of age from Jackson Laboratories (Bar Harbor, Me.). Mice were fed a standard chow diet and provided ad libitum access to food and water throughout the study. Mice were shaved dorsally in telogen, i.e., postnatal days of about 43-45 for males (unless otherwise indicated) and Day 58 for females, respectively. Vehicle control (25 μL DMSO, unless otherwise indicated) or test compounds (in 25 μL DMSO, unless otherwise indicated) were topically applied on the shaved skin every other day (unless otherwise described) for the duration of the experiments (3-6 weeks). Appearance of skin pigmentation and hair growth were monitored and documented by photos and videos. Progression was also assigned a value from 0 to 100 based on pigmentation levels and hair shaft density, with 0 indicating no hair growth (and no pigmentation) and higher number corresponding to darker skin and larger areas of dense hair growth. […] The vehicle DMSO was also mixed with PLO base for topical application.

[2] = test system: autophagy related markers; experiment: Western blot analysis of autophagy related markers in telogen skin; assay type: in vivo, mouse
Procedure: (§1) Male mice were shaved and treated every other day starting on Postnatal Day 43. After 5 days, telogen skin samples were harvested and stage confirmed. Mouse skin tissue lysate was prepared by homogenization in T-PER Tissue Protein Extraction Buffer (Thermo Scientific, 78510) with protease inhibitors (Roche, 11836153001) and phosphatase inhibitors (Sigma, P5726) by FastPrep-24 (MP Biomedicals). Tissue and cell debris were removed by centrifugation and the lysate was boiled for 5 min in 1×SDS loading buffer containing 5% β-mercaptoethanol. Samples were then subjected to SDS-PAGE on NuPAGE Novex 12% Bis-Tris gels (Invitrogen, NP0343BOX), and western blotting was carried out with antibodies against LC3 (Novus, NB100-2220), p62 (Sigma, P0068), Phospho-Beclin-1 (Ser15) (corresponding to Ser14 in mouse) (Cell Signaling, 84966), Phospho-Beclin-1 (Ser93) (corresponding to Ser91 in mouse) (Cell Signaling, 14717), Beclin-1 (Abcam, ab207612), or GAPDH (Ambion, AM4300).

[3] = test system: Beclin 1 S14 phosphorylation; experiment: Western blot of treated mouse skin: phosphorylated Beclin 1 S14; assay type: in vivo; settings: Day 5 post-treatment
Procedure: (§2) Male mice were shaved and treated every other day starting on Postnatal Day 43. After 5 days, telogen skin samples were harvested and stage confirmed. […] Tissue and cell debris were removed by centrifugation and the lysate was boiled for 5 min in 1×SDS loading buffer containing 5% β-mercaptoethanol.

p62/SQSTM1 = experiment: Western blot of treated mouse skin: p62; assay type: in vivo; settings: treated mouse telogen skin
Procedure: as §2

p62 transcript = experiment: Quantitative RT-PCR of p62 transcript in treated skin; assay type: in vivo, mouse; settings: 24 hours post-treatment, B2m internal control
Procedure: At 24 hours post-treatment, telogen skin samples were harvested and total RNA was isolated using TRIzol reagent (Invitrogen) from whole thickness mouse skin tissue. cDNA was synthesized using iScript Reverse Transcription Supermix (Bio-Rad). iTaq Universal SYBR Green Supermix (Bio-Rad) and a Bio-Rad CFX Connect instrument were used for quantitative RT-PCR. The primer sequences used for RT-qPCR are as follows: […]

[4] = test system: Beclin 1 S91 phosphorylation; experiment: Western blot of treated mouse skin: phosphorylated Beclin 1 S91; assay type: in vivo
Procedure: as §1

LC3 = experiment: Western blot of treated mouse skin: LC3; assay type: in vivo; settings: telogen skin of mice treated topically 5 days
Procedure: as §2

aged C57BL/6J mice [5] = experiment: Topical treatment of shaved aged mice (pilot experiments); assay type: in vivo, mouse; settings: pilot experiments on aged mice (data not shown)
Procedure: For oral α-KB treatment, aged male and female C57BL/6J mice were obtained at 87 weeks of age (NIA aged rodent colonies). Mice were housed in a controlled SPF facility (22±2° C., 6:00-18:00, 12 h/12 h light/dark cycle) at UCLA. […] For topical α-KB treatment, aged male C57BL/6J mice were obtained at 21 months of age (NIA aged rodent colonies), shaved the following week, and topically treated with α-KB (32 mM) every other day for one month. All experiments were approved by the UCLA Chancellor's Animal Research Committee.

aged C57BL/6J mice [6] = experiment: Oral α-KB treatment of aged mice (hair loss / hair coating); assay type: in vivo, mouse; settings: 8 mM in drinking water over 30 weeks, aged female mice, 131 weeks of age
Procedure: For oral α-KB treatment, aged male and female C57BL/6J mice were obtained at 87 weeks of age (NIA aged rodent colonies). Mice were housed in a controlled SPF facility (22±2° C., 6:00-18:00, 12 h/12 h light/dark cycle) at UCLA. […] Treatment with either water (vehicle control), or α-KB (90 mg/kg bodyweight) in drinking water, started when mice were at 101 weeks of age. For topical α-KB treatment, aged male C57BL/6J mice were obtained at 21 months of age (NIA aged rodent colonies), shaved the following week, and topically treated with α-KB (32 mM) every other day for one month. All experiments were approved by the UCLA Chancellor's Animal Research Committee.

hair follicles = settings: treatment group vs control
Source text: Mouse dorsal skin was shaved before being collected for histological and molecular analyses. Full-thickness skin tissue was then fixed in 10% formalin solution (Sigma, HT501128) overnight and dehydrated for embedding in paraffin. […] Images were captured by Leica Aperio ScanScope AT brightfield system at ×20 magnification.

NC(=O)c1ncn([C@@H]2O[C@H](COP(=O)(O)O)[C@@H](O)[C@H]2O)c1N [AICAR, 5-aminoimidazole-4-carboxamide ribonucleotide]
Rapid anagen entry on whole dorsal telogen skin [1]: never | Hair regeneration ([1]; male mice shaved Postnatal Day 44, topical 16 mM every other day, Day 41 post-treatment): induces hair regeneration; also recorded: stimulated

CN(C)C(=N)N=C(N)N [metformin]
Autophagy induction ([2]; topical treatment of mouse skin): similarly induced | Rapid anagen entry on whole dorsal telogen skin [1]: never | Hair regeneration ([1]; male mice shaved Postnatal Day 43, topical 160 mM every other day, vehicle H2O, Day 48 post-treatment): induces hair regeneration; also recorded: similarly induced

Cc1cc(Nc2cc(Cl)nc(Oc3ccc([N+](=O)[O-])cc3)n2)n[nH]1 [autophinib]
Effect of co-treatment on hair regeneration by α-KG (64 mM) ([1]; autophinib 4 mM, male mice shaved Postnatal Day 53, topical every other day, Day 20 post-treatment): inhibits hair regeneration by α-KG | Effect of co-treatment on SMER28 (2 mM) induced hair regeneration ([1]; autophinib 4 mM, mice shaved Postnatal Day 51, topical every other day, Day 20 post-treatment): inhibited; also recorded: prevented hair regeneration by SMER28

CO/C1=C\C(C)=C\[C@@H](C)[C@@H](O)[C@@H](C)C/C(C)=C/C=C/[C@H](OC)[C@@H]([C@@H](C)[C@@H](O)[C@H](C)[C@@]2(O)C[C@@H](O)[C@H](C)[C@@H](C(C)C)O2)OC1=O [bafilomycin A1]
Effect of co-treatment on hair regeneration by α-KG (64 mM) ([1]; bafilomycin 200 μM, male mice shaved Postnatal Day 52, topical every other day, Day 21 post-treatment): inhibits hair regeneration by α-KG

CO[C@H]1C[C@@H]2CC[C@@H](C)[C@@](O)(O2)C(=O)C(=O)N2CCCC[C@H]2C(=O)O[C@H]([C@H](C)C[C@@H]2CC[C@@H](O)[C@H](OC)C2)CC(=O)[C@H](C)/C=C(\C)[C@@H](O)[C@@H](OC)C(=O)[C@H](C)C[C@H](C)/C=C/C=C/C=C/1C [rapamycin]
Adverse skin effect ([1]; topical 16 μM (data not shown)): hair loss and open wounds

C=CCNc1ncnc2ccc(Br)cc12 [SMER28]
Beclin 1 S14 phosphorylation (mTOR-dependent) [3]: not increased | p62 expression (Western blot) (p62/SQSTM1): increased | p62 transcript levels (quantitative RT-PCR) (p62 transcript): increased | Beclin 1 S91 phosphorylation (AMPK-dependent) [4]: not increased | LC3 expression (Western blot) (LC3): increased | Rapid anagen entry on whole dorsal telogen skin [1]: observed from time to time | Hair regeneration ([1]; male mice shaved Postnatal Day 45, topical 1 mM daily, Day 23 post-treatment): greatly induced hair regeneration | Hair regeneration ([1]; mice shaved Postnatal Day 51, topical 2 mM every other day, Day 20 post-treatment): induced hair regeneration

CCC(=O)C(=O)O [α-KB, α-ketobutyrate]
Hair growth / regeneration in shaved aged animals (aged C57BL/6J mice [5]): only moderately promoted hair growth | Phosphorylated Beclin 1 (Western blot) ([2]; telogen skin of mice treated 5 days): elevated | LC3 expression (Western blot) (LC3): elevated | Rapid anagen entry on whole dorsal telogen skin [1]: never | Hair regeneration ([1]; male mice shaved Postnatal Day 44, topical 32 mM every other day, Day 39 post-treatment): induces hair regeneration; also recorded: substantially induced skin pigmentation and hair regeneration | Hair loss / hair coating in aged mice (aged C57BL/6J mice [6]): negates hair loss; also recorded: greatly improved hair coating

CC[C@H]1/C=C/C=C/C[C@@H](C)[C@H](O)[C@@](C)(O)C(=O)[C@@H](C)[C@H](O)[C@@H](C)C(=O)[C@@H](C)[C@H](O)[C@@H](C)/C=C/C(=O)O[C@@H]2[C@H](C)[C@H](CC1)O[C@]1(CC[C@H](C)[C@H](C[C@@H](C)O)O1)[C@H]2C [oligomycin]
Beclin 1 S14 phosphorylation (mTOR-dependent) [3]: increased | Beclin 1 S91 phosphorylation (AMPK-dependent) [4]: increased | LC3 expression (Western blot) (LC3): Increased autophagy | Rapid anagen entry on whole dorsal telogen skin [1]: observed from time to time | Hair regeneration in female mice ([1]; female mice shaved Postnatal Day 58, topical 10 μM every other day, Day 26 post-treatment): stimulate hair regeneration | Hair regeneration ([1]; male mice shaved Postnatal Day 44, topical 100 μM every other day, Day 23 post-treatment): similarly promoted hair regeneration | Hair regeneration ([1]; male mice shaved Postnatal Day 44, topical 100 μM every other day, Day 23 post-treatment, listed as Oligomycin): induces hair regeneration

O=C(O)CCC(=O)C(=O)O [α-KG, α-ketoglutarate]
Follicles and proliferation marker Ki-67 expression (hair follicles): More follicles and high proliferation marker Ki-67 expression | Hair growth / regeneration in shaved aged animals (aged C57BL/6J mice [5]): did not visibly increase
